Laboratory results published in article PMC4827351 (Chemical Science, 2015).

Key:
[1] = Negative-staining TEM of peptide self-assembly; format: physicochemical; conditions: for fibrils (TEM), time course of trypsin treatment: room temperature, 10 mM sodium phosphate pH 7.4
Procedure: Fig. 3 TEM analysis of HD6 self-assembly and SEM analysis of bacterial agglutination. Top row: transmission electron micrographs of 10 mM sodium phosphate pH 7.4 (control), 0.4 μM trypsin (control), 20 μM proHD6 in the absence and presence of 0.4 μM trypsin, and 20 μM HD6. All the samples were incubated at room temperature for 1 h. Scale bar = 100 nm. TEM images obtained using 10 mM Tris-maleate pH 6.4 are presented in Fig. S7. ^† Middle row: scanning electron micrographs of E. coli ATCC 25922 treated with 50 mM Tris-maleate pH 6.4 (control), 0.4 μM APMSF-inactivated trypsin (control), 3 μM proHD6, 3 μM trypsin-cleaved proHD6, or 3 μM HD6. Trypsin-cleaved proHD6 was prepared prior to incubation with the bacteria and the residual enzymatic activity was inhibited by APMSF (Experimental section). Following a 30 min incubation, the bacterial suspensions were centrifuged, fixed, and analyzed by SEM. Scale bar = 20 μm. Bottom row: SEM of L. monocytogenes ATCC19115 treated under the same conditions as in the middle row. Scale bar = 20 μm.
The samples for TEM were prepared by following a literature protocol.[15] For each sample, a 5 μL aliquot of peptide solution (20 μM in 10 mM sodium phosphate pH 7.4 or 10 mM Tris-maleate pH 6.4) was placed onto the carbon-coated surface of a copper grid (400 square mesh, Electron Microscopy Sciences). After 1 min, the grid was washed with a 5 μL aliquot of Milli-Q water, stained with a 5 μL aliquot of 2% uranyl acetate (UA, Electron Microscopy Sciences) in Milli-Q water three times, and air-dried for at least 15 min before imaging. A FEI Technai Spirit Transmission Electron Microscope was employed for all TEM imaging (W.M. Keck Microscopy Facility, Whitehead Institute, Cambridge, MA). TEM images were obtained with at least two independently prepared peptides and representative images are presented.
Figure S7. TEM analysis of trypsin-catalyzed proteolysis of proHD6 in Tris-maleate buffer.
Transmission electron micrographs of 10 mM Tris- maleate pH 6.4 (control), 0.4 µM trypsin (control), 20 µM proHD6 in the absence and presence of 0.4 µM trypsin, and 20 µM HD6. All samples were incubated at room temperature for 1 h. Scale bar = […].
Figure S8. Time course of trypsin-catalyzed proteolysis of proHD6 monitored by TEM.
Transmission electron micrographs of 20 µM proHD6 after treatment with 0.4 µM trypsin at room temperature for the indicated time. All the samples were in 10 mM sodium phosphate […]

[2] = test system: L. monocytogenes ATCC 19115 invasion of human T84 colon epithelial cells; test: Listeria invasion assay; format: cell-based, Listeria monocytogenes; conditions: proHD6 ≤10 µM, no trypsin, bacteria pre-incubated with peptide 30 min at room temperature, n = 3
Procedure: Fig. 5 Listeria invasion assays for native and cleaved proHD6. Invasion of human T84 colon epithelial cells by L. monocytogenes ATCC 19115 pre-treated with proHD6 in the absence and presence of 0.4 μM trypsin or HD6 (control). The bacteria (2 × 10^6 CFU mL^–1) were incubated with the indicated peptides for 30 min prior to the infection of the T84 cells (mean ± SDM, n = 3).
Concentrated (20×, 10 μL) solutions of HD6 and proHD6 were prepared in sterile Milli-Q water (0, 50, 100, and 200 μM). For conditions that required trypsin, a 1 mg mL^–1 stock solution of TPCK-treated trypsin (Worthington) in sterile Milli-Q water was added to the 20× proHD6 solutions to yield a final trypsin concentration of 0.01 mg mL^–1. A 190 μL aliquot of the diluted bacterial culture was added to each […] peptide solution and the resulting mixtures were incubated at room temperature for 30 min. The invasion assays were then performed by following a literature protocol.[15],[50] All invasion assays were conducted with at least two independently prepared and purified samples of each peptide and in three independent trials and the resulting averages with standard deviations are reported.

[3] = test system: L. monocytogenes ATCC 19115; test: Cuvette-based bacterial agglutination assay; format: cell-based, Listeria monocytogenes; conditions: n = 3
Text: We previously reported a simple cuvette-based in vitro agglutination assay that enables time-dependent monitoring of agglutination of viable bacteria by HD6.[15] We employed this assay to further characterize the trypsin-dependent activity of proHD6 on cultured bacterial cells (Fig. 4a and b). […] In these assays, we defined the “supernatant” as the culture solution in the top portion of the cuvette and the “re-suspension” as the mixture that results from agitating the entire culture after the 6 h incubation period.[15] We observed an ≈1.5-fold log reduction in CFU mL^–1 for the “supernatant” from cultures treated with combination of trypsin and proHD6 relative to the no-peptide control (Fig. 4c). Following “re-suspension”, the total CFU mL^–1 in the cuvette was indistinguishable from that of either the untreated control culture or the bacterial culture treated with proHD6.
Fig. 4 Bacterial agglutination assays for native and cleaved proHD6. (a) Agglutination of E. coli ATCC 25922 and L. monocytogenes ATCC 19115 in 50% MHB treated with proHD6 in the absence and presence of 0.4 μM trypsin or HD6 (control). (b) Representative images of cuvettes containing E. coli ATCC 25922 or L. monocytogenes ATCC 19115 after incubation with 20 μM peptides for 2 h at room temperature. (c) Plots of colony forming units (CFU mL^–1) of E. coli ATCC 25922 and L. monocytogenes ATCC 19115 after treatment with 20 μM peptides for 6 h (mean ± SDM, n = 3). Supernatant is defined as the clarified medium solution in the top portion of the culture and resuspension is defined as the mixture after thoroughly agitating the heterogeneous solution.
Stock solutions (50 μL) of HD6 and proHD6 (0, 50, 100, and 200 μM; 10× concentrations) were prepared in sterile Milli-Q water. If trypsin was required, aliquots of a 1 mg mL^–1 stock solution of TPCK-treated trypsin (Worthington) prepared in sterile Milli-Q water were added to solutions of proHD6 to afford a final trypsin concentration of 0.01 mg mL^–1. The assays were then conducted following the reported procedure.[15] […]

Sequence: EPLQAEDDPLQAKAYEADAQEQRGANDQDFAVSFAEDASSSLRALGSTRAFTCHCRRSCYSTEYSYGTCTVMGINHRFCCL (disulfide (positions not given here)) [proHD6, 81-residue propeptide of human α-defensin 6, recombinant, from His6-SUMO-proHD6]
- formation of higher-order oligomers (TEM) ([1]; 20 µM peptide, 10 mM sodium phosphate pH 7.4 or 10 mM Tris-maleate pH 6.4, room temperature 1 h, no trypsin): no evidence for the formation of higher-order oligomers
- fibrils (TEM), time course of trypsin treatment ([1]; 20 µM proHD6 + 0.4 µM trypsin, 5 min): relatively short fibrils
- fibrils (TEM), time course of trypsin treatment ([1]; 20 µM proHD6 + 0.4 µM trypsin, 60 min): closely resembled those of mature HD6
- formation of fibrils (TEM) after addition of trypsin ([1]; 20 µM proHD6 + 0.4 µM trypsin, room temperature 1 h, 10 mM sodium phosphate pH 7.4 or 10 mM Tris-maleate pH 6.4): fibril-like features comparable to those observed for the mature HD6 peptide
- L. monocytogenes invasion into human intestinal epithelial cells [2]: did not impair
- total CFU mL^-1 after re-suspension versus untreated control culture or culture treated with proHD6 ([3]; 20 µM proHD6 + trypsin, 6 h, entire culture agitated): indistinguishable
- agglutination of bacterial culture in cuvette, with trypsin ([3]; proHD6 + 0.4 µM (0.01 mg/mL) trypsin, 10^8 CFU mL^-1, 50% MHB, room temperature): bacterial agglutination and sedimentation occurred
- agglutination of bacterial culture in cuvette ([3]; proHD6 up to 20 µM, no trypsin, 10^8 CFU mL^-1, 50% MHB, 6 h, room temperature): remained homogeneous
